Article PMC8699473, “An Easily Expandable Multi-Drug LC-MS Assay for the Simultaneous Quantification of 57 Oral Antitumor Drugs in Human Plasma” (Cancers, 2021)

Test: Long-term stability in spiked pooled human plasma

| Compound | Long-term stability, 1 month, -20°C Accuracy [%] (validation standard 2xLLOV) | Long-term stability, 1 month, -80°C Accuracy [%] (validation standard 2xLLOV) | Long-term stability, 2 month, -20°C Accuracy [%] (validation standard 2xLLOV) | Long-term stability, 2 month, -80°C Accuracy [%] (validation standard 2xLLOV) | Long-term stability, 3 month, -20°C Accuracy [%] (validation standard 2xLLOV) | Long-term stability, 3 month, -80°C Accuracy [%] (validation standard 2xLLOV) | Long-term stability, 6 weeks, 4°C, without daylight Accuracy [%] (validation standard 2xLLOV) | Long-term stability, 1 month, -20°C Accuracy [%] (validation standard LLOV) | Long-term stability, 1 month, -80°C Accuracy [%] (validation standard LLOV) | Long-term stability, 2 month, -20°C Accuracy [%] (validation standard LLOV) | Long-term stability, 2 month, -80°C Accuracy [%] (validation standard LLOV) | Long-term stability, 3 month, -20°C Accuracy [%] (validation standard LLOV) | Long-term stability, 3 month, -80°C Accuracy [%] (validation standard LLOV) | Long-term stability, 1 month, -20°C Accuracy [%] (validation standard MOV) | Long-term stability, 1 month, -80°C Accuracy [%] (validation standard MOV) | Long-term stability, 2 month, -20°C Accuracy [%] (validation standard MOV) | Long-term stability, 2 month, -80°C Accuracy [%] (validation standard MOV) | Long-term stability, 3 month, -20°C Accuracy [%] (validation standard MOV) | Long-term stability, 3 month, -80°C Accuracy [%] (validation standard MOV) | Long-term stability, 6 weeks, 4°C, without daylight Accuracy [%] (validation standard MOV) | also measured |
| --- | --- | --- | --- | --- | --- | --- | --- | --- | --- | --- | --- | --- | --- | --- | --- | --- | --- | --- | --- | --- | --- |
| CS(=O)(=O)CCNCc1ccc(-c2ccc3ncnc(Nc4ccc(OCc5cccc(F)c5)c(Cl)c4)c3c2)o1 [Lapatinib] | 91.4 | 92.2 | 84.4 | 102.3 | 72.0 | 96.3 | 34.8 | 85.5 | 91.6 | 80.7 | 98.5 | 55.4 | 95.3 | 95.3 | 97.6 | 93.7 | 103.0 | 78.1 | 101.0 | 101.1 | Long-term stability, 6 weeks, 4°C, without daylight Accuracy [%] (validation standard LLOV): 28.2%; Long-term stability, 1 month, -20°C Accuracy [%] (validation standard ULOV): 96.6%; Long-term stability, 1 month, -80°C Accuracy [%] (validation standard ULOV): 94.5%; Long-term stability, 2 month, -20°C Accuracy [%] (validation standard ULOV): 101.5%; Long-term stability, 2 month, -80°C Accuracy [%] (validation standard ULOV): 100.9%; Long-term stability, 3 month, -20°C Accuracy [%] (validation standard ULOV): 95.4%; Long-term stability, 3 month, -80°C Accuracy [%] (validation standard ULOV): 96.7%; Long-term stability, 6 weeks, 4°C, without daylight Accuracy [%] (validation standard ULOV): 99.9% |
| Nc1cccc2c1CN(C1CCC(=O)NC1=O)C2=O (centres unmarked) [Lenalidomide] | 112.2 | 103.2 | 97.9 | 104.0 | 99.5 | 104.1 | 15.8 | 104.5 | 96.6 | 52.8 | 56.2 | 69.1 | 82.4 | 93.9 | 93.9 | 101.8 | 104.0 | 92.9 | 96.0 | 19.7 | Long-term stability, 1 month, -20°C Accuracy [%] (validation standard ULOV): 92.6%; Long-term stability, 1 month, -80°C Accuracy [%] (validation standard ULOV): 88.5%; Long-term stability, 2 month, -20°C Accuracy [%] (validation standard ULOV): 95.8%; Long-term stability, 2 month, -80°C Accuracy [%] (validation standard ULOV): 98.8%; Long-term stability, 3 month, -20°C Accuracy [%] (validation standard ULOV): 89.8%; Long-term stability, 3 month, -80°C Accuracy [%] (validation standard ULOV): 94.4%; Long-term stability, 6 weeks, 4°C, without daylight Accuracy [%] (validation standard ULOV): 16.2% |
| C[C@H]1Oc2cc(cnc2N)-c2c(nn(C)c2C#N)CN(C)C(=O)c2ccc(F)cc21 [Lorlatinib] | 89.2 | 84.9 | 91.9 | 91.9 | 91.7 | 90.8 | 96.7 | 87.9 | 82.6 | 90.0 | 87.6 | 95.7 | 93.2 | 88.5 | 87.8 | 93.9 | 91.2 | 90.9 | 89.2 | 93.7 | Long-term stability, 6 weeks, 4°C, without daylight Accuracy [%] (validation standard LLOV): 97.1%; Long-term stability, 1 month, -20°C Accuracy [%] (validation standard ULOV): 90.6%; Long-term stability, 1 month, -80°C Accuracy [%] (validation standard ULOV): 87.4%; Long-term stability, 2 month, -20°C Accuracy [%] (validation standard ULOV): 91.4%; Long-term stability, 2 month, -80°C Accuracy [%] (validation standard ULOV): 91.7%; Long-term stability, 3 month, -20°C Accuracy [%] (validation standard ULOV): 91.0%; Long-term stability, 3 month, -80°C Accuracy [%] (validation standard ULOV): 89.2%; Long-term stability, 6 weeks, 4°C, without daylight Accuracy [%] (validation standard ULOV): 91.4% |
